Measured values from patent publication US5852008A, “Heteroatom substituted benzoyl derivatives that enhance synaptic response mediated by receptors” (The Regents of the University of California, priority 1995, dated 1998).
pEC50: −log10 of the molar value. Where two headings read alike, the source gives them in different places.

Key:
AMPA receptors = experiment: Field EPSP in rat hippocampal slices (field CA1): amplitude and area of AMPA receptor-mediated synaptic responses; assay type: cell-based, rat (Sprague-Dawley)
Experimental: The physiological effects of invention compounds can be tested in vitro with slices of rat hippocampus as follows. Excitatory responses (field EPSPs) are measured in hippocampal slices which are maintained in a recording chamber continuously perfused with artificial cerebrospinal fluid (ACSF).
To conduct these tests, the hippocampus was removed from anesthetized, 2 month old Sprague-Dawley rats and in vitro slices (400 micrometers thick) were prepared and maintained in an interface chamber at 35° C. using conventional techniques [see, for example, Dunwiddie and Lynch, J. Physiol. Vol. 276: 353-367 (1978)]. The chamber was constantly perfused at 0.5 ml/min with ACSF containing (in mM): NaCl 124, KCl 3, KH2 PO4 1.25, MgSO4 2.5, CaCl2 3.4, NaHCO3 26, glucose 10 and L-ascorbate 2. A bipolar nichrome stimulating electrode was positioned in the dendritic layer (stratum radiatum) of the hippocampal subfield CA1 close to the border of subfield CA3.
Current pulses (0.1 msec) through the stimulating electrode activate a population of the Schaffer-commissural (SC) fibers which arise from neurons in the subdivision CA3 and terminate in synapses on the dendrites of CA1 neurons. Activation of these synapses causes them to release the transmitter glutamate. Glutamate binds to the postsynaptic AMPA receptors which then transiently open an associated ion channel and permit a sodium current to enter the postsynaptic cell. This current results in a voltage in the extracellular space (the field excitatory postsynaptic potential or field "EPSP") which is recorded by a high impedance recording electrode positioned in the middle of the stratum radiatum of CA1.
For the experiments summarized in FIG. 1, the intensity of the stimulation current was adjusted to produce half-maximal EPSPs (typically about 1.5-2.0 mV). Paired stimulation pulses were given every 40 sec with an interpulse interval of 200 msec (see below). The field EPSPs of the second response were digitized and analyzed to determine amplitude, half-width, and response area. If the responses were stable for 15-30 minutes (baseline), test compounds were added to the perfusion lines for a period of about 15 minutes. The perfusion was then changed back to regular ACSF.
Paired-pulse stimulation was used since stimulation of the SC fibers, in part, activates interneurons which generate an inhibitory postsynaptic potential (IPSP) in the pyramidal cells of CA1. This feed forward IPSP typically sets in after the EPSP reaches its peak. It accelerates the repolarization and shortens the decay phase of the EPSP, and thus could partially mask the effects of the test compounds. One of the relevant features of the feed-forward IPSP is that it can not be reactivated for several hundred milliseconds following a stimulation pulse. This phenomenon can be employed to advantage to eliminate IPSP by delivering paired pulses separated by 200 milliseconds and using the second ("primed") response for data analysis.
These effects are mirrored in the field EPSP, as reported in the literature [see, for example, Staubli et al., Psychobiology supra; Xiao et al., Hippocampus supra; Staubli et al., Hippocampus Vol. 2: 49-58 (1992)].
The variables set forth in the table refer to the following generic structure: [drawing 33]

[1] = PET biodistribution of 11C-labelled Invention Compound II after i.p. injection
Source text: To test the ability of invention compounds to pass the blood-brain barrier, Invention Compound II was labelled with carbon-11.
Radiolabelled Invention Compound II (see the table above) is synthesized by the following scheme (wherein the numbers in parenthesis refer to the quantity of reagent used, in millimoles): [drawing 34] wherein Ar is aryl (such as methylenedioxybenzene), Im is imidazole (thus, ImHCl is imidazole hydrochloride), and R is an alkyl or alkylene radical (so that R2 NH is, for example, piperidine). ^11 C-labelled CO2 is produced by cyclotron irradiation and subsequently used in the above-described synthetic scheme. The time to complete the synthesis is about […] ([…] the half-life of carbon-11). After purification of [^11 C]II on C18 Sep Pak, 260 μCi was diluted with 20 mg of nonradioactive II as carrier in a 1-ml solution of 23% propylene glycol and 10% ethanol in physiologically-buffered saline in order to simulate the dosage of 100 mg/Kg that was used in behavioral studies. The final 1 ml of solution was administered to a 200 g rat under halothane anesthesia (1.4-1.7% in oxygen) by intraperitoneal (i.p.) injection.
Biodistribution of the radiotracer in the body of the rat was monitored by a positron camera (Scanditronix PC2048-15B) and the time-activity curves were constructed using a Vax 3500 (Digital Equipment Corporation) and shown in FIG. 5.

AMPA receptor = conditions: cited from earlier work
[2] = percent increase in field EPSP amplitude; log dose/response; maximal response of 85% increase assumed where solubility was limiting; read-out: EC50 (field EPSP amplitude)
[3] = after i.p. injection, 100 mg/kg
[4] = read-out: EC50 (field EPSP amplitude); percent increase in field EPSP amplitude; log dose/response; maximal response of 85% increase assumed where solubility was limiting

O=C(c1ccc2c(c1)OCO2)N1CC=CCC1 [Invention Compound III, 1-(1,3-benzodioxol-5-ylcarbonyl)-1,2,3,6-tetrahydropyridine]
pEC50 (AMPA receptors; [2]): 3.10

O=C(c1ccc2nccnc2c1)N1CCCCC1 [Invention Compound XIV, 1-(quinoxalin-6-ylcarbonyl)-piperidine]
pEC50 (AMPA receptors; [2]): 3.52

O=C(c1ccc2ocnc2c1)N1CC=CCC1 [Invention Compound IX]
pEC50 (AMPA receptors; [2]): 2.40

O=C(c1ccc2[nH]cnc2c1)N1CC=CCC1 [Invention Compound XII]
pEC50 (AMPA receptors; [2]): 2.30

O=C(c1ccc2c(c1)OCO2)N1CCCCC1 [Invention Compound II, 1-(1,3-benzodioxol-5-ylcarbonyl)-piperidine]
time of peak uptake in brain [1, 3]: about 5 minutes | time of peak uptake in heart [1, 3]: about 5 minutes | time of peak uptake in liver [1, 3]: about 3 minutes | time of peak uptake in soft tissues [1, 3]: about 17 minutes | passage through the blood-brain barrier ([1]; i.p.): passes freely through the blood-brain barrier | brain distribution relative to head excluding the cranial cavity ([1]; rat, in vivo, ip): approximately equal to that of the head excluding the cranial cavity | decline of levels in liver after peak ([1]; rat, in vivo, ip): declined markedly for the first 5 minutes after peaking and then more gradually | decline of levels in the other three tissues (heart, brain, soft tissue) after peak ([1]; rat, in vivo, ip): declined very gradually after peaking | entry into and residence in brain (target tissue) ([1]; rat, in vivo, ip): relatively rapid and stayed in the brain for an extended period | order of tissue uptake ([1]; rat, in vivo, ip): liver showed the maximum uptake, followed by heart | pEC50 (AMPA receptors; [2]): 2.82

COc1ccc(C(=O)N2CC[C@@H](O)C2=O)cc1 [(R)-1-p-anisoyl-3-hydroxy-2-pyrrolidinone]
facilitation of AMPA receptor mediated responses (AMPA receptor; nootropics tested in slices): facilitate AMPA receptor mediated responses

O=C(c1ccc2ncoc2c1)N1CC=CCC1 [Invention Compound XI]
pEC50 (AMPA receptors; [2]): 2.52

O=C(c1ccc2c(c1)OCCO2)N1CC=CC1 [Invention Compound VIII]
pEC50 (AMPA receptors; [2]): 2.52

CN(C)c1ccc(C(=O)N2CC=CCC2)cc1 [Invention Compound XV, N-(4-dimethylamino)benzoyl-1,2,3,6-tetrahydropyridine]
pEC50 (AMPA receptors; [2]): 2.77

COc1ccc(C(=O)NCCCC(=O)O)cc1 [anisoyl-GABA]
aniracetam-like effects (AMPA receptor; metabolite of aniracetam): no aniracetam-like effects

O=C1CCCC1C(=O)c1ccc2c(c1)OCO2 (centres unmarked) [Invention Compound IV]
pEC50 (AMPA receptors; [4]): 3.05

O=C(c1ccc2c(c1)OCO2)N1CCCC1 [Invention Compound VI, 1(1,3-Benzodioxol-5-ylcarbonyl)-pyrrolidine]
pEC50 (AMPA receptors; [2]): 2.92

O=C1CCCN1C(=O)c1ccc2c(c1)OCO2 [Invention Compound XVI]
pEC50 (AMPA receptors; [4]): 2.70

CC1Oc2ccc(C(=O)N3CCCCC3)cc2O1 (racemic) [Invention Compound V, (R,S)-1-(2-methyl-1,3-benzodioxol-5-ylcarbonyl)-piperidine]
pEC50 (AMPA receptors; [2]): 2.96

O=C(c1ccc2nccnc2c1)N1CC=CCC1 [Invention Compound XIII, 1-(quinoxalin-6-ylcarbonyl)-1,2,3,6-tetrahydropyridine]
pEC50 (AMPA receptors; [2]): 4.30

O=C(c1ccc2c(c1)OCO2)N1CCCCCC1 [Invention Compound VII, 1-(1,3-benzodioxol-5-ylcarbonyl)-hexamethyleneimine]
pEC50 (AMPA receptors; [2]): 2.40
